In PMC11104609, “Discovery of allosteric regulators with clinical potential to stabilize alpha-L-iduronidase in mucopolysaccharidosis type I” (PLOS ONE, 2024):

What was measured:
[1] = target: T1, rhIDUA (Aldurazyme) (Homo sapiens, UniProt P35475); test: IDUA assay in bone marrow of mice co-administered rhIDUA and GT-01803; format: in vivo, male C57BL/6 mice; conditions: GT-01803 5, 10, 20 mg/kg i.v. + rhIDUA 1.2 mg/kg i.v.; 6, 8, 10 h; dose-dependent, significant at 20 mg/kg
T1 sequence (P35475 28-653): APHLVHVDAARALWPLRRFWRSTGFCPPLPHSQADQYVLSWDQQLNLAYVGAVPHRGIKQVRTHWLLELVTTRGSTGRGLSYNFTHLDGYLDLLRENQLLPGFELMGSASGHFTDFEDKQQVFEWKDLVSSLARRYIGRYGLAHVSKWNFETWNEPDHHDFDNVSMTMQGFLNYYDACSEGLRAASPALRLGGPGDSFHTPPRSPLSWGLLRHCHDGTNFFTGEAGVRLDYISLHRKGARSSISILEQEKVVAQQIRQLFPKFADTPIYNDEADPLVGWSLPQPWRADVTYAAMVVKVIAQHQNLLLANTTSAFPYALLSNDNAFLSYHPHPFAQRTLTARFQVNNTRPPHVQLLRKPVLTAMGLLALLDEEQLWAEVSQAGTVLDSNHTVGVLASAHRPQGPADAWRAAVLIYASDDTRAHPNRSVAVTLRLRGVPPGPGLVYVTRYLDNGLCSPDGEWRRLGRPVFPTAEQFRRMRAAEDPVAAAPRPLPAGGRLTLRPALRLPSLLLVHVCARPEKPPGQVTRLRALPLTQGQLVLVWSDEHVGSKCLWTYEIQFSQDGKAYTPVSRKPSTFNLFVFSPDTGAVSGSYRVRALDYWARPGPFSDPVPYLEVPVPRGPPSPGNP
Method: Mice studies were performed by Sai Life Sciences (Pune, India). All procedures of the present study were in accordance with the guidelines provided by the Committee for the Purpose of Control and Supervision of Experiments on Animals (CPCSEA) as published in The Gazette of India, December 15, 1998. In addition, prior approval from the Institutional Animal Ethics Committee (IAEC) was obtained before the initiation of the study. Healthy male C57BL/6 mice (8–10 weeks old) weighing between 22 and 25 g were procured (Global, Pune, India). Three to five mice were housed in each cage. Temperature and humidity were maintained at 22 ± 2 °C and 41–63%, respectively, and illumination was controlled to give a sequence of a 12 h light and 12 h dark cycle. In the study’s in-life phase, we provided all mice with cage enrichment to minimize anxiety. We conducted bone marrow sampling under isoflurane anesthesia, maintaining it throughout the entire procedure. […] All procedures were carried out according to our in-house Standard Operating Procedures and monitored by a veterinarian if required. […]
Bone marrow samples from mice were collected at 2, 6, 8 and 10 h after treatment with compound #18 (GT-01803). […] The relative fluorescence unit (RFU) in the IDUA enzymatic assay was measured in duplicates (two replicates) and then averaged to obtain the enzyme activity per animal.

[2] = Plasma pharmacokinetics of GT-01803 in mice; format: in vivo, male C57BL/6 mice; conditions: male, C57BL/6, mouse
Method: The in vivo pharmacokinetic (PK) profile of GT-01803 in plasma was assessed in male C57BL/6 mice after single intravenous (i.v.) and oral gavage administration (p.o.) of 2 mg/kg and 10 mg/Kg, respectively. The plasma PK evaluation was performed by Sai Life Sciences Limited (Pune, India) in accordance with guidelines of the Institutional Animal Ethics Committee (IAEC). Eighteen male mice were divided into Group 1 (i.v.: 2 mg/kg) or Group 2 (p.o.: 10 mg/kg). Animals in Group 1 and Group 2 were administered intravenously and orally with GT-01803 solution formulation in 5% N-methyl-2-pyrrolidone (NMP), 5% Solutol HS-15 and 90% saline solution at 2 and 10 mg/kg doses, respectively.
Blood samples were collected under light isoflurane anesthesia from retro-orbital plexus such that samples were obtained at 0.08, 0.25, 0.5, 1, 2, 3, 4, 6 and 8 hr. (i.v.) and Pre-dose, 0.25, 0.5, 1, 2, 3, 4, 6 and 8 hr (p.o.). At each time point, blood samples were collected from three mice. Immediately after collection, plasma was harvested by centrifugation and stored at -70 °C until analysis. All samples were processed by protein precipitation using acetonitrile and analyzed with an LC/MS/MS method suitable for the purpose (LLOQ = 1.00 ng/mL).
PK parameters were calculated using the non-compartmental analysis tool of Phoenix WinNonlin (Version 7.0). Maximum concentration (Cmax) and time to reach maximum concentration (Tmax) were the observed values. The areas under the concentration time curve (AUClast and AUCinf) […] were calculated by linear trapezoidal rule. The terminal elimination rate constant, ke, was determined by regression analysis of the linear terminal portion of the log plasma concentration-time curve. The terminal half-life (T1/2) was estimated as follows 0.693/ke; CLi.v. = Dose/AUCinf; Vss = MRT X CLi.v.; %F = [(Mean AUCp.o. × Dosei.v.) / (Mean AUCi.v. × Dosep.o.)] × 100.

CCN(CC(=O)Nc1c(Cl)cccc1Cl)Cc1nc2ccsc2c(=O)[nH]1 [GT-01803]
IDUA enzymatic activity levels in bone marrow [1]: increased
AUC(0-inf) ([2]; iv, 2 mg/kg): 13600 ng·h/mL
AUC(0-t) ([2]; iv, 2 mg/kg): 13300 ng·h/mL
clearance ([2]; iv, 2 mg/kg): 2.45 mL/min/kg
half-life ([2]; iv, 2 mg/kg): 3.54 h
C0 ([2]; iv, 2 mg/kg, read-out: C0 (back extrapolated conc.)): 33500 ng/mL
Vd ([2]; iv, 2 mg/kg, read-out: Vss): 0.13 L/kg
bioavailability ([2]; oral, p.o. 10 mg/kg vs i.v. 2 mg/kg, AUClast considered, read-out: %F (oral bioavailability)): 50%
AUC(0-inf) ([2]; po, 10 mg/kg): 33200 ng·h/mL
AUC(0-t) ([2]; po, 10 mg/kg): 33000 ng·h/mL
Cmax ([2]; po, 10 mg/kg): 33900 ng/mL
Tmax ([2]; po, 10 mg/kg): 0.25 h
